From patent US20190345443A1, “METHOD FOR THE CULTURING AND DIFFERENTIATION OF CELLS” (FRAUNHOFER-GESELLSCHAFT ZUR FORDERUNG DER ANGEWANDTEN …, priority 2018, published 2019) come the findings set out here.

The test system of this experiment is MDA-MB-231 breast cancer cells. Description: Overhead culture of MDA-MB-231 breast cancer cells with paclitaxel, relative cell count. It is filed as cell-based. The settings on record: 500 nM paclitaxel, 48 h overhead culture. As for the experimental part: In the present experiment, MDA-MB-231 breast cancer cells were initially seeded on cell culture substrates according to the present invention, in particular nanoporous glass membranes with average pore diameters of 17 nm, 26 nm, 46 nm, 81 nm, and 124 nm, and on a smooth non-porous glass surface and cultured for 24 h in order to obtain homogeneous cell colonization on all substrates. Subsequently, the samples were inverted and divided into two groups: one control group and one test group, wherein the culturing took place in overhead culture for 48 h. In this context, the control group was cultured in normal culture medium and 500 nM paclitaxel was added to the culture medium of the test group. During culturing for 48 h in overhead culture, a reduction of the relative cell count on the substrates according to the invention by approximately 35-55% in the test group as compared to the control group was observed (FIG. 7).

For the compound `CC(=O)O[C@H]1C(=O)[C@@]2(C)[C@H]([C@H](OC(=O)c3ccccc3)[C@]3(O)C[C@H](OC(=O)[C@H](O)[C@@H](NC(=O)c4ccccc4)c4ccccc4)C(C)=C1C3(C)C)[C@]1(OC(C)=O)CO[C@@H]1C[C@@H]2O` [paclitaxel], the “reduction of the relative cell count in the test group as compared to the control group” value (on nanoporous glass membranes (17, 26, 46, 81, 124 nm)) is reported as 35-55% and the “reduction of the relative cell count in the test group as compared to the control group” value (on smooth non-porous glass surface) is given as “approximately 5%”.
